Measured values as given in US20060293307A1, “Oxazolidinone derivatives as antimicrobials” (priority 2002, published 2006).
In brackets after ≈: the same amount, converted by molar mass. Like-named read-outs stand apart in the source and are kept apart here.

Key:
M. tuberculosis M-149 = assay: MIC against M. tuberculosis strains, agar dilution; type: cell-based, Mycobacterium tuberculosis; details: Middle Brook 7H10 + OADC, 37° C., 14-21 days
H. influenzae ATCC 49247 = assay: MIC against Haemophilus strains; type: cell-based
M. tuberculosis M-168 = assay: MIC against M. tuberculosis strains, agar dilution; type: cell-based, Mycobacterium tuberculosis; details: Middle Brook 7H10 + OADC, 37° C., 14-21 days
M. tuberculosis V-3093 = assay: MIC against M. tuberculosis strains, agar dilution; type: cell-based, Mycobacterium tuberculosis; details: Mycobacterium tuberculosis, V3093, S. No. 14 Mt-, Middle Brook 7H10 + OADC, 37° C., 14-21 days, read-out: MIC
[1] = system: M. avium intracellulare 356/97; assay: MIC against MAC strains, agar dilution; type: cell-based; details: S. No. 10 Mai-1, M. avium intracellulare 356/97, Middle Brook 7H10 + OADC, 37° C., 14-21 days
[2] = system: M. avium intracellulare 4; assay: MIC against MAC strains, agar dilution; type: cell-based; details: S. No. 11 Mai-2, M. avium intracellulare 4, Middle Brook 7H10 + OADC, 37° C., 14-21 days
M. tuberculosis PC = assay: MIC against M. tuberculosis strains, agar dilution; type: cell-based, Mycobacterium tuberculosis; details: S. No. 20 Mt-, Middle Brook 7H10 + OADC, 37° C., 14-21 days
M. tuberculosis SGPGI = assay: MIC against M. tuberculosis strains, agar dilution; type: cell-based, Mycobacterium tuberculosis; details: S. No. 06 Mt-, Middle Brook 7H10 + OADC, 37° C., 14-21 days
M. avium ATCC 1723 = assay: MIC against MAC strains, agar dilution; type: cell-based, Mycobacterium avium; details: S. No. 03 Ma-3, M. avium ATCC 1723, Middle Brook 7H10 + OADC, 37° C., 14-21 days
H. influenzae 1745 = assay: MIC against Haemophilus strains; type: cell-based
M avium ATCC 700897 = assay: MIC against MAC strains, agar dilution; type: cell-based, Mycobacterium avium; details: S. No. 05 Ma-6, M avium ATCC 700897, Middle Brook 7H10 + OADC, 37° C., 14-21 days
H. influenzae 474 = assay: MIC against Haemophilus strains; type: cell-based
M. tuberculosis M-66 = assay: MIC against M. tuberculosis strains, agar dilution; type: cell-based, Mycobacterium tuberculosis; details: Middle Brook 7H10 + OADC, 37° C., 14-21 days
M. tuberculosis PC 4793 = assay: MIC against M. tuberculosis strains, agar dilution; type: cell-based, Mycobacterium tuberculosis; details: Middle Brook 7H10 + OADC, 37° C., 14-21 days
M. tuberculosis M-164 = assay: MIC against M. tuberculosis strains, agar dilution; type: cell-based, Mycobacterium tuberculosis; details: Middle Brook 7H10 + OADC, 37° C., 14-21 days
M. tuberculosis H37Ra = assay: MIC against M. tuberculosis strains, agar dilution; type: cell-based, Mycobacterium tuberculosis; details: Mycobacterium tuberculosis, S. No. 24 Mt-, Middle Brook 7H10 + OADC, 37° C., 14-21 days, read-out: MIC
H. influenzae R = assay: MIC against Haemophilus strains; type: cell-based
M avium ATCC 25291 = assay: MIC against MAC strains, agar dilution; type: cell-based, Mycobacterium avium; details: S. No. 02 Ma-2, M avium ATCC 25291, Middle Brook 7H10 + OADC, 37° C., 14-21 days
[3] = system: M. avium intracellulare 18/98; assay: MIC against MAC strains, agar dilution; type: cell-based; details: S. No. 16 Mai-9, M. avium intracellulare 18/98, Middle Brook 7H10 + OADC, 37° C., 14-21 days
[4] = Haemophilus influenzae, ATCC49247, s. No. 2, H. influenzae ATCC 49247, read-out: MIC
[5] = Mycobacterium avium, read-out: MIC
[6] = Mycobacterium tuberculosis, read-out: MIC
[7] = Haemophilus influenzae, s. No. 9, H. influenzae 1745, read-out: MIC
[8] = Haemophilus influenzae, s. No. 11, H. influenzae 474, read-out: MIC
[9] = Haemophilus influenzae, s. No. 4, H. influenzae R, read-out: MIC
[10] = s. No. 2, H. influenzae ATCC 49247

## CC(=O)NC[C@H]1CN(c2ccc(N3CCN(c4ccc([N+](=O)[O-])s4)CC3)c(F)c2)C(=O)O1 [Compound No. 1, (S)—N-[[3-[3-Fluoro-4-[4-(5-nitro-2-thienyl)-1-piperazinyl]phenyl]-2-oxo-5-oxazolidinyl]methyl]acetamide]
M. tuberculosis M-149; Mycobacterium tuberculosis, M149, S. No. 15 Mt-, read-out: MIC
  MIC: 0.25 µg/mL
H. influenzae ATCC 49247; [4]
  MIC: 8 µg/mL (≈ 17.3 µM)
M. tuberculosis M-168; Mycobacterium tuberculosis, M168, S. No. 09 Mt-, read-out: MIC
  MIC: 0.25 µg/mL
M. tuberculosis V-3093
  MIC: ≤ 0.125 µg/mL
[1]; [5]
  MIC: 0.25 µg/mL
[2]; [5]
  MIC: < 0.125 µg/mL
M. tuberculosis PC; [6]
  MIC: 0.25 µg/mL
M. tuberculosis SGPGI; [6]
  MIC: 1 µg/mL
other
  melting point: 171 to 174 °C
M. avium ATCC 1723; Mycobacterium avium, ATCC1723, read-out: MIC
  MIC: 0.25 µg/mL
H. influenzae 1745; [7]
  MIC: 16 µg/mL (≈ 34.5 µM)
M avium ATCC 700897; Mycobacterium avium, ATCC700897, read-out: MIC
  MIC: < 0.123 µg/mL
H. influenzae 474; [8]
  MIC: 16 µg/mL (≈ 34.5 µM)
M. tuberculosis M-66; Mycobacterium tuberculosis, M66, S. No. 08 Mt-, read-out: MIC
  MIC: > 32 µg/mL
M. tuberculosis PC 4793; Mycobacterium tuberculosis, PC4793, S. No. 23 Mt-, read-out: MIC
  MIC: > 32 µg/mL
M. tuberculosis M-164; Mycobacterium tuberculosis, M164, S. No. 10 Mt-, read-out: MIC
  MIC: 0.5 µg/mL
M. tuberculosis H37Ra
  MIC: ≤ 0.125 µg/mL
H. influenzae R; [9]
  MIC: 8 µg/mL (≈ 17.3 µM)
M avium ATCC 25291; Mycobacterium avium, ATCC25291, read-out: MIC
  MIC: 0.25 µg/mL
[3]; [5]
  MIC: 0.25 µg/mL

## CC(=O)NC[C@H]1CN(c2ccc(N3CCN(c4ccc(C=O)s4)CC3)c(F)c2)C(=O)O1 [Compound No. 2, (S)—N-[[3-[3-Fluoro-4-[4-(5-formyl-2-thienyl)-1-piperazinyl]phenyl]-2-oxo-5-oxazolidinyl]methyl]acetamide]
H. influenzae ATCC 49247; [4]
  MIC: 16 µg/mL (≈ 35.8 µM)
other
  melting point: 180 °C (dec.)
H. influenzae 1745; [7]
  MIC: > 16 µg/mL
H. influenzae 474; [8]
  MIC: 16 µg/mL (≈ 35.8 µM)
H. influenzae R; [9]
  MIC: > 16 µg/mL

## CC(=O)NC[C@H]1CN(c2ccc(N3CCN(c4ccc(C=O)o4)CC3)c(F)c2)C(=O)O1 [Compound No. 3, (S)—N-[[3-[3-Fluoro-4-[4-(5-formyl-2-furyl)-1-piperazinyl]phenyl]-2-oxo-5-oxazolidinyl]methyl]acetamide]
H. influenzae ATCC 49247; [4]
  MIC: 4 µg/mL (≈ 9.29 µM)
other
  melting point: 176 °C
H. influenzae 1745; [7]
  MIC: 8 µg/mL (≈ 18.6 µM)
H. influenzae 474; [8]
  MIC: 4 µg/mL (≈ 9.29 µM)
H. influenzae R; [9]
  MIC: 8 µg/mL (≈ 18.6 µM)

## CC(=O)NC[C@H]1CN(c2ccc(N3CCN(c4ccc([N+](=O)[O-])o4)CC3)c(F)c2)C(=O)O1 [Compound No. 4, (S)—N-[[3-[3-Fluoro-4-[4-(5-nitro-2-furyl)-1-piperazinyl]phenyl]-2-oxo-5-oxazolidinyl]methyl]acetamide]
other
  melting point: 191 to 204 °C

## CC(=O)NC[C@H]1CN(c2ccc(N3CCN(c4cc(C(OC(C)=O)OC(C)=O)sc4[N+](=O)[O-])CC3)c(F)c2)C(=O)O1 [Compound No. 5, (S)—N-[[3-[3-Fluoro-4-[4-{3-thienyl(2-nitro)-5-acetyloxy}methylacetate]-1-piperazinyl]phenyl]-2-oxo-5-oxazolidinyl]acetamide]
H. influenzae ATCC 49247; [10]
  MIC: >16 µg/mL
H. influenzae 1745; s. No. 9, H. influenzae 1745
  MIC: 16 µg/mL (≈ 27 µM)
H. influenzae 474; s. No. 11, H. influenzae 474
  MIC: >16 µg/mL
H. influenzae R; s. No. 4, H. influenzae R
  MIC: 16 µg/mL (≈ 27 µM)

## CC(=O)NC[C@H]1CN(c2ccc(N3CCN(c4ccc([N+](=O)[O-])s4)CC3)cc2)C(=O)O1 [Compound No. 6, (S)—N-[[3-[4-[N-1-(5-nitro-2-thienyl)piperazinyl]-phenyl]-2-oxo-5-oxazolidinyl]-methyl]-acetamide]
H. influenzae ATCC 49247; [10]
  MIC: 16 µg/mL (≈ 35.9 µM)
H. influenzae 1745; s. No. 9, H. influenzae 1745
  MIC: 16 µg/mL (≈ 35.9 µM)
H. influenzae 474; s. No. 11, H. influenzae 474
  MIC: 16 µg/mL (≈ 35.9 µM)
H. influenzae R; s. No. 4, H. influenzae R
  MIC: 16 µg/mL (≈ 35.9 µM)

## C[C@H](Cl)C(=O)NCC1CN(c2ccc(N3CCN(c4ccc([N+](=O)[O-])s4)CC3)c(F)c2)C(=O)O1 (stereo partly drawn) [Compound No. 7, (S)—N-[[3-[3-Fluoro-4-[N-1-{4-(5-nitro-2-thienyl)piperazinyl}]-phenyl]-2-oxo-5-oxazolidinyl]-methyl]-2-chloro-propionamide]
H. influenzae ATCC 49247; [10]
  MIC: >16 µg/mL
H. influenzae 1745; s. No. 9, H. influenzae 1745
  MIC: >16 µg/mL
H. influenzae 474; s. No. 11, H. influenzae 474
  MIC: >16 µg/mL
H. influenzae R; s. No. 4, H. influenzae R
  MIC: >16 µg/mL

## O=C(NC[C@H]1CN(c2ccc(N3CCN(c4ccc([N+](=O)[O-])s4)CC3)c(F)c2)C(=O)O1)C(F)F [Compound No. 8, (S)—N-[[3-[3-Fluoro-4-[4-(5-nitro-2-thienyl)-1-piperazinyl]phenyl]-2-oxo-5-oxazolidinyl]methyl]difluoroacetamide]
H. influenzae ATCC 49247; Haemophilus influenzae, ATCC49247
  MIC: > 16 µg/mL
H. influenzae 1745; Haemophilus influenzae, 1745
  MIC: 16 µg/mL (≈ 32 µM)
H. influenzae 474; Haemophilus influenzae, 474
  MIC: > 16 µg/mL
H. influenzae R; Haemophilus influenzae
  MIC: > 16 µg/mL

## CO[C@H]1/C=C/O[C@@]2(C)Oc3c(C)c(O)c4c(O)c(c(/C=N/N5CCN(C)CC5)c(O)c4c3C2=O)NC(=O)/C(C)=C\C=C\[C@H](C)[C@H](O)[C@@H](C)[C@@H](O)[C@@H](C)[C@H](OC(C)=O)[C@@H]1C [RIF]
M. tuberculosis M-149; S. No. 15 Mt-
  MIC: >32 µg/mL
M. tuberculosis M-168; S. No. 09 Mt-
  MIC: 16 µg/mL
[1]
  MIC: 0.5 µg/mL
[2]
  MIC: 0.25 µg/mL
M. tuberculosis PC
  MIC: 2.0 µg/mL
M. tuberculosis SGPGI
  MIC: >32 µg/mL
M. avium ATCC 1723
  MIC: 1.0 µg/mL
M avium ATCC 700897
  MIC: 1.0 µg/mL
M. tuberculosis M-66; S. No. 08 Mt-
  MIC: >32 µg/mL
M. tuberculosis PC 4793; S. No. 23 Mt-
  MIC: 2.0 µg/mL
M. tuberculosis M-164; S. No. 10 Mt-
  MIC: >32 µg/mL
M avium ATCC 25291
  MIC: >32 µg/mL
[3]
  MIC: >32 µg/mL

## O=C(NC[C@H]1CN(c2ccc(N3CCN(c4ccc([N+](=O)[O-])s4)CC3)c(F)c2)C(=O)O1)C(Cl)Cl [compound 9, (S)—N-[[3-[-3-Fluoro-4-[N-1-(5-nitro-2-thienyl)-piperazinyl]phenyl] -2-oxo-5-oxazolidinyl]methyl]dichloroacetamide]
H. influenzae ATCC 49247; [10]
  MIC: >16 µg/mL
H. influenzae 1745; s. No. 9, H. influenzae 1745
  MIC: >16 µg/mL
H. influenzae 474; s. No. 11, H. influenzae 474
  MIC: >16 µg/mL
H. influenzae R; s. No. 4, H. influenzae R
  MIC: >16 µg/mL

## (S)—N-[[3-[-3-Fluoro-4-[(5-nitro-2-thienyl)-3-methyl-1-piperazinyl]phenyl]-2-oxo-5-oxazolidinyl]methyl]acetamide [Compound No. 10]
H. influenzae ATCC 49247; [10]
  MIC: >16 µg/mL
H. influenzae 1745; s. No. 9, H. influenzae 1745
  MIC: >16 µg/mL
H. influenzae 474; s. No. 11, H. influenzae 474
  MIC: >16 µg/mL
H. influenzae R; s. No. 4, H. influenzae R
  MIC: >16 µg/mL
